Values of other authors, collected in article PMC12241124 (Frontiers in Microbiology, 2025).

Conditions: ref Mygind et al., 2005

plectasin
terminal serum elimination half-life: 51 min
